{
  "source": "patent US20260285850A1",
  "about": "“SUBSTITUTED OXAZOLIDINONES AND IMIDAZOLINONES AS HERBICIDES” (FMC CORPORATION, priority 2023, published 2026)",
  "type_in_all_cases": "in vivo",
  "key": {"[1]": {"system": "ragweed (common ragweed, Ambrosia artemisiifolia)", "assay": "Test A postemergence application, visual injury rating 0-100", "summary_of_the_method": "(§1)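 Compound in a non-phytotoxic, surfactant-containing solvent is applied either as a directed soil spray before seedlings emerge or onto emerged plants 2-10 cm tall; pots hold a loam-sand blend. Plants grow 10 days under greenhouse conditions and are rated by eye against untreated controls (0 no effect, 100 complete control).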"}, "corn (Zea mays) [2]": {"system": "corn (Zea mays)", "assay": "Test A postemergence application, visual injury rating 0-100", "summary_of_the_method": "as §1"}, "[3]": {"system": "galium (catchweed bedstraw, Galium aparine)", "assay": "Test A postemergence application, visual injury rating 0-100", "summary_of_the_method": "as §1"}, "[4]": {"system": "palmer (palmer amaranth, palmer pigweed, Amaranthus palmeri)", "assay": "Test A postemergence application, visual injury rating 0-100", "summary_of_the_method": "as §1"}, "[5]": {"system": "ryegrass, Italian (italian ryegrass, Lolium multiflorum)", "assay": "Test A postemergence application, visual injury rating 0-100", "summary_of_the_method": "as §1"}, "[6]": {"system": "oat, wild (wild oat, Avena fatua)", "assay": "Test A postemergence application, visual injury rating 0-100", "summary_of_the_method": "as §1"}, "soybean (Glycine max) [7]": {"system": "soybean (Glycine max)", "assay": "Test A postemergence application, visual injury rating 0-100", "summary_of_the_method": "as §1"}, "[8]": {"system": "blackgrass (Alopecurus myosuroides)", "assay": "Test A postemergence application, visual injury rating 0-100", "summary_of_the_method": "as §1"}, "[9]": {"system": "barnyardgrass (Echinochloa crus-galli)", "assay": "Test A postemergence application, visual injury rating 0-100", "summary_of_the_method": "as §1"}, "[10]": {"system": "wheat (Triticum aestivum)", "assay": "Test A postemergence application, visual injury rating 0-100", "summary_of_the_method": "as §1"}, "kochia (Bassia scoparia) [11]": {"system": "kochia (Bassia scoparia)", "assay": "Test A postemergence application, visual injury rating 0-100", "summary_of_the_method": "as §1"}, "[12]": {"system": "horseweed (Erigeron canadensis)", "assay": "Test A postemergence application, visual injury rating 0-100", "summary_of_the_method": "as §1"}, "[13]": {"system": "green foxtail (Setaria viridis)", "assay": "Test A postemergence application, visual injury rating 0-100", "summary_of_the_method": "as §1"}, "[14]": {"system": "ducksalad (Heteranthera limosa)", "assay": "Test B flooded paddy test, visual plant response rating 0-100", "settings": "250 g ai/ha, Flood, applied to paddy water, evaluated after 13 days", "summary_of_the_method": "(§2)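 Treatment occurs at the 2-leaf stage by adding compound to floodwater standing 3 cm above the soil, a level kept for the whole test. Plants stay in the greenhouse 13 days before visual comparison with controls.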"}, "rice (Oryza sativa)": {"system": "rice (Oryza sativa)", "assay": "Test B flooded paddy test, visual plant response rating 0-100", "settings": "250 g ai/ha, Flood, applied to paddy water, evaluated after 13 days", "summary_of_the_method": "as §2"}, "[15]": {"system": "barnyardgrass (Echinochloa crusgalli)", "assay": "Test B flooded paddy test, visual plant response rating 0-100", "settings": "250 g ai/ha, Flood, applied to paddy water, evaluated after 13 days", "summary_of_the_method": "as §2"}, "[16]": {"system": "sedge, umbrella (small-flower umbrella sedge, Cyperus difformis)", "assay": "Test B flooded paddy test, visual plant response rating 0-100", "settings": "250 g ai/ha, Flood, applied to paddy water, evaluated after 13 days", "summary_of_the_method": "as §2"}, "[17]": {"system": "ragweed (common ragweed, Ambrosia artemisiifolia)", "assay": "Test A preemergence soil spray, visual injury rating 0-100", "settings": "10 days", "summary_of_the_method": "as §1"}, "corn (Zea mays) [18]": {"system": "corn (Zea mays)", "assay": "Test A preemergence soil spray, visual injury rating 0-100", "settings": "10 days", "summary_of_the_method": "as §1"}, "[19]": {"system": "palmer (palmer amaranth, palmer pigweed, Amaranthus palmeri)", "assay": "Test A preemergence soil spray, visual injury rating 0-100", "settings": "10 days", "summary_of_the_method": "as §1"}, "[20]": {"system": "ryegrass, Italian (italian ryegrass, Lolium multiflorum)", "assay": "Test A preemergence soil spray, visual injury rating 0-100", "settings": "10 days", "summary_of_the_method": "as §1"}, "[21]": {"system": "oat, wild (wild oat, Avena fatua)", "assay": "Test A preemergence soil spray, visual injury rating 0-100", "settings": "10 days", "summary_of_the_method": "as §1"}, "soybean (Glycine max) [22]": {"system": "soybean (Glycine max)", "assay": "Test A preemergence soil spray, visual injury rating 0-100", "settings": "10 days", "summary_of_the_method": "as §1"}, "[23]": {"system": "blackgrass (Alopecurus myosuroides)", "assay": "Test A preemergence soil spray, visual injury rating 0-100", "settings": "10 days", "summary_of_the_method": "as §1"}, "[24]": {"system": "barnyardgrass (Echinochloa crus-galli)", "assay": "Test A preemergence soil spray, visual injury rating 0-100", "settings": "10 days", "summary_of_the_method": "as §1"}, "[25]": {"system": "wheat (Triticum aestivum)", "assay": "Test A preemergence soil spray, visual injury rating 0-100", "settings": "10 days", "summary_of_the_method": "as §1"}, "kochia (Bassia scoparia) [26]": {"system": "kochia (Bassia scoparia)", "assay": "Test A preemergence soil spray, visual injury rating 0-100", "settings": "10 days", "summary_of_the_method": "as §1"}, "[27]": {"system": "green foxtail (Setaria viridis)", "assay": "Test A preemergence soil spray, visual injury rating 0-100", "settings": "10 days", "summary_of_the_method": "as §1"}, "[28]": {"settings": "62 g ai/ha, postemergence, 10 days, 0 = no effect, 100 = complete control"}, "[29]": {"settings": "Postemergence, 16 g ai/ha, greenhouse 10 days, 0 no effect, 100 complete control"}, "[30]": {"settings": "62 g ai/ha, 0 = no effect, 100 = complete control"}},
  "data": [
    {"smiles": "COC(=O)C1C=CC(NC(=O)C2(C)CN(c3cc(F)cc(F)c3)C(=O)O2)C1", "note": "(stereo not shown) [Compound 92]", "values": [
      {"measurement": "Ragweed plant response rating (0-100)", "setting": "[1]; [28]", "result": 20},
      {"measurement": "Ragweed plant response rating (0 to 100 scale)", "setting": "[1]; [29]", "result": 0},
      {"measurement": "Corn plant response rating (0-100)", "setting": "corn (Zea mays) [2]; [28]", "result": 0},
      {"measurement": "Corn plant response rating (0 to 100 scale)", "setting": "corn (Zea mays) [2]; [29]", "result": 0},
      {"measurement": "Galium plant response rating (0-100)", "setting": "[3]; [28]", "result": 0},
      {"measurement": "Galium plant response rating (0 to 100 scale)", "setting": "[3]; [29]", "result": 0},
      {"measurement": "Pigweed, Palmer plant response rating (0-100)", "setting": "[4]; [28]", "result": 0},
      {"measurement": "Pigweed, Palmer plant response rating (0 to 100 scale)", "setting": "[4]; [29]", "result": 0},
      {"measurement": "Ryegrass, Italian plant response rating (0-100)", "setting": "[5]; [28]", "result": 0},
      {"measurement": "Ryegrass, Italian plant response rating (0 to 100 scale)", "setting": "[5]; [29]", "result": 0},
      {"measurement": "Oat, Wild plant response rating (0-100)", "setting": "[6]; [28]", "result": 0},
      {"measurement": "Oat, Wild plant response rating (0 to 100 scale)", "setting": "[6]; [29]", "result": 0},
      {"measurement": "Soybean plant response rating (0-100)", "setting": "soybean (Glycine max) [7]; [28]", "result": 0},
      {"measurement": "Soybean plant response rating (0 to 100 scale)", "setting": "soybean (Glycine max) [7]; [29]", "result": 0},
      {"measurement": "Blackgrass plant response rating (0-100)", "setting": "[8]; [28]", "result": 0},
      {"measurement": "Blackgrass plant response rating (0 to 100 scale)", "setting": "[8]; [29]", "result": 0},
      {"measurement": "Barnyardgrass plant response rating (0-100)", "setting": "[9]; [28]", "result": 0},
      {"measurement": "Barnyardgrass plant response rating (0 to 100 scale)", "setting": "[9]; [29]", "result": 0},
      {"measurement": "Wheat plant response rating (0-100)", "setting": "[10]; [28]", "result": 0},
      {"measurement": "Wheat plant response rating (0 to 100 scale)", "setting": "[10]; [29]", "result": 0},
      {"measurement": "Kochia plant response rating (0-100)", "setting": "kochia (Bassia scoparia) [11]; [28]", "result": 0},
      {"measurement": "Kochia plant response rating (0 to 100 scale)", "setting": "kochia (Bassia scoparia) [11]; [29]", "result": 0},
      {"measurement": "Horseweed plant response rating (0-100)", "setting": "[12]; [28]", "result": 0},
      {"measurement": "Horseweed plant response rating (0 to 100 scale)", "setting": "[12]; [29]", "result": 0},
      {"measurement": "Foxtail, Green plant response rating (0-100)", "setting": "[13]; [28]", "result": 0},
      {"measurement": "Foxtail, Green plant response rating (0 to 100 scale)", "setting": "[13]; [29]", "result": 0},
      {"measurement": "Plant response rating, Ducksalad (0 to 100 scale, 0 is no effect and 100 is complete control)", "setting": "[14]", "result": 0},
      {"measurement": "Plant response rating, Rice (0 to 100 scale, 0 is no effect and 100 is complete control)", "setting": "rice (Oryza sativa)", "result": 0},
      {"measurement": "Plant response rating, Barnyardgrass (0 to 100 scale, 0 is no effect and 100 is complete control)", "setting": "[15]", "result": 0},
      {"measurement": "Plant response rating, Sedge, Umbrella (0 to 100 scale, 0 is no effect and 100 is complete control)", "setting": "[16]", "result": 0},
      {"measurement": "Ragweed plant response rating", "setting": "[17]; 16 g ai/ha, 0 to 100 scale", "result": 0},
      {"measurement": "Ragweed plant response rating (0-100)", "setting": "[17]; [30]", "result": 0},
      {"measurement": "Corn plant response rating", "setting": "corn (Zea mays) [18]; 16 g ai/ha, 0 to 100 scale", "result": 0},
      {"measurement": "Corn plant response rating (0-100)", "setting": "corn (Zea mays) [18]; [30]", "result": 0},
      {"measurement": "Pigweed, Palmer plant response rating", "setting": "[19]; 16 g ai/ha, 0 to 100 scale", "result": 0},
      {"measurement": "Pigweed, Palmer plant response rating (0-100)", "setting": "[19]; [30]", "result": 70},
      {"measurement": "Ryegrass, Italian plant response rating", "setting": "[20]; 16 g ai/ha, 0 to 100 scale", "result": 0},
      {"measurement": "Ryegrass, Italian plant response rating (0-100)", "setting": "[20]; [30]", "result": 0},
      {"measurement": "Oat, Wild plant response rating", "setting": "[21]; 16 g ai/ha, 0 to 100 scale", "result": 0},
      {"measurement": "Oat, Wild plant response rating (0-100)", "setting": "[21]; [30]", "result": 0},
      {"measurement": "Soybean plant response rating", "setting": "soybean (Glycine max) [22]; 16 g ai/ha, 0 to 100 scale", "result": 0},
      {"measurement": "Soybean plant response rating (0-100)", "setting": "soybean (Glycine max) [22]; [30]", "result": 0},
      {"measurement": "Blackgrass plant response rating", "setting": "[23]; 16 g ai/ha, 0 to 100 scale", "result": 0},
      {"measurement": "Blackgrass plant response rating (0-100)", "setting": "[23]; [30]", "result": 0},
      {"measurement": "Barnyardgrass plant response rating", "setting": "[24]; 16 g ai/ha, 0 to 100 scale", "result": 0},
      {"measurement": "Barnyardgrass plant response rating (0-100)", "setting": "[24]; [30]", "result": 0},
      {"measurement": "Wheat plant response rating", "setting": "[25]; 16 g ai/ha, 0 to 100 scale", "result": 0},
      {"measurement": "Wheat plant response rating (0-100)", "setting": "[25]; [30]", "result": 0},
      {"measurement": "Kochia plant response rating", "setting": "kochia (Bassia scoparia) [26]; 16 g ai/ha, 0 to 100 scale", "result": 0},
      {"measurement": "Kochia plant response rating (0-100)", "setting": "kochia (Bassia scoparia) [26]; [30]", "result": 0},
      {"measurement": "Foxtail, Green plant response rating", "setting": "[27]; 16 g ai/ha, 0 to 100 scale", "result": 0},
      {"measurement": "Foxtail, Green plant response rating (0-100)", "setting": "[27]; [30]", "result": 0}
    ]}
  ]
}
